Read-outs that look alike come from different tables or passages of the source.
Assays:
Format in all cases: in vivo
[1] = test system: Zymoseptoria tritici Tri-R6 strain
[2] = test system: Botrytis cinerea; experiment: Example 11: greenhouse control of Botrytis cinerea in strawberry
[3] = test system: Alternaria solani; experiment: Example 5: greenhouse control of Alternaria solani in tomato, phthalimides with azoxystrobin and/or fluxapyroxad
[4] = test system: Erysiphe necator; experiment: Example 9: greenhouse control of Erysiphe necator in grape plants
Description: • An experiment was conducted in controlled conditions under a greenhouse to evaluate the fungicidal activity of the mixture comprising (1) phthalimide fungicide (folpet, captan) and (2) demethylation inhibitor fungicide (difenoconazole) or a quinone outside inhibitors (azoxystrobin, pyraclostrobin), toward Erysiphe necator in grape plants, variety Barbera. In addition, the activity of phthalimide with two fungicides (A); demethylation inhibitor fungicide (difenoconazole) or a quinone outside inhibitors (azoxystrobin, pyraclostrobin and dehydrogenase inhibitor fungicide (fluxapyroxad) was also tested. • The experiment was conducted by applying compositions of fluxapyroxad, difenoconazole (Score® 10 WG), azoxystrobin (Ortiva®), pyraclostrobin (Cabrio® EC) and folpet (Folpan 80 WDG®) alone or together. The compositions were diluted with water. Water amount used was equivalent to 800 L/ha. Application was performed in an automatic spraying cabin equipped with 2 flatfan AI11003VS nozzles. • Treatments: • Folpet 1000 gr (A.I.)/ha • Fluxapyroxad 45 gr (A.I.)/ha • Difenoconazole 37.5 gr (A.I.)/ha • Difenoconazole 37.5 gr (A.I.)/ha+folpet 1000 gr (A.I.)/ha • Azoxystrobin 90 gr (A.I.)/ha • Azoxystrobin 90 gr (A.I.)/ha+folpet 1000 gr (A.I.)/ha • Pyraclostrobin 75 gr (A.I.)/ha • Pyraclostrobin 75 gr (A.I.)/ha+folpet 1000 gr (A.I.)/ha • Fluxapyroxad 45 gr (A.I.)/ha+Difenoconazole 37.5 gr (A.I.)/ha • Fluxapyroxad 45 gr (A.I.)/ha+Difenoconazole 37.5 gr (A.I.)/ha+folpet 1000 gr (A.I.)/ha • Azoxystrobin 90 gr (A.I.)/ha+Fluxapyroxad 45 gr (A.I.)/ha • Azoxystrobin 90 gr (A.I.)/ha+Fluxapyroxad 45 gr (A.I.)/ha+folpet 1000 gr (A.I.)/ha • Azoxystrobin 90 gr (A.I.)/ha+Difenoconazole 37.5 gr (A.I.)/ha • Azoxystrobin 90 gr (A.I.)/ha+Difenoconazole 37.5 gr (A.I.)/ha+folpet 1000 gr (A.I.)/ha • Pyraclostrobin 75 gr (A.I.)/ha+Fluxapyroxad 45 gr (A.I.)/ha • Pyraclostrobin 75 gr (A.I.)/ha+Fluxapyroxad 45 gr (A.I.)/ha+folpet 1000 gr (A.I.)/ha • Pyraclostrobin 75 gr (A.I.)/ha+Difenoconazole 37.5 gr (A.I.)/ha • Pyraclostrobin 75 gr (A.I.)/ha+Difenoconazole 37.5 gr (A.I.)/ha+folpet 1000 gr (A.I.)/ha • To test for fungicidal control of Erysiphe necator, the grape plants were sprayed with each of the above treatments. Each of the above treatments was applied from 4 to 10 times according to the disease development, applications occurring 7-14 days after the previous treatment. The treatments were composed of 4 replicates. • Evaluations were performed for the whole duration of the experiment. At each time the incidence and the severity of Erysiphe necator on plants parts was determined.

[5] = test system: Sphaerotheca fuliginea; experiment: Example 10: greenhouse control of Sphaerotheca fuliginea on melon plants
[6] = test system: Phytophthora infestans; details: tomato
[7] = test system: Alternaria solani; experiment: Example 6b: greenhouse control of Alternaria solani in potato plants
[8] = test system: Plasmopara viticola; experiment: Example 7: greenhouse control of Plasmopara viticola in grape plants, folpet with partners
[9] = test system: Venturia inaequalis; experiment: Example A: greenhouse control of apple scab, phthalimides with DMI and/or fluopyram; details: for % control observed on leaves 26 DAYS after the application / % control observed on leaves 19 DAYS after the application: captan or folpet 1200, difenoconazole 75, tebuconazole 150, fluopyram 150 gAI/ha; for Var % (19/26 DAYS): change of % control from 19 to 26 days
[10] = test system: Venturia inaequalis; experiment: Example 1b: greenhouse control of apple scab, reduced rates of phthalimides and difenoconazole; details: for % control observed on leaves 26 DAYS after the application / % control observed on leaves 19 DAYS after the application: captan or folpet 900, difenoconazole 35, tebuconazole 150, fluopyram 150 gAI/ha; for Var % (19/26 DAYS): change of % control from 19 to 26 days
[11] = test system: Alternaria solani; experiment: Example 4: greenhouse control of Alternaria solani in tomato seedlings, phthalimides with DMI and/or fluxapyroxad; details: Table 9; captan or folpet 1200, difenoconazole 75, tebuconazole 150, fluxapyroxad 75 gAI/ha; one spray 1 day before inoculation
[12] = Table 2, one spray 1 day before inoculation, severity based
[13] = Table 4, one spray 1 day before inoculation

**Q.** Which “effect of FOLPET on the efficacy of the systemic product, treated and untreated areas” value ([1]; with FOLPET vs use alone, 21 and 28 days) does the source give for `Cn1cc(C(=O)Nc2ccc(F)cc2-c2ccc(Cl)c(Cl)c2)c(C(F)F)n1` [BIXAFEN, bixafen] here?
**A.** greatly improved efficacy

**Q.** What about the “protection of the untreated area by the formulation alone” value ([1]; without FOLPET) of the same compound?
**A.** incapable of protecting the areas not treated

**Q.** With `N#Cc1c[nH]cc1-c1cccc2c1OC(F)(F)O2` [FLUDIOXONIL] as the compound, how does the “% control observed on leaves 21 DAYS after the application” value (“% control observed on leaves 21 DAYS” below) ([2]; rate 150 gr (A.I.)/ha) read?
**A.** 40.8%

**Q.** For `CO/C=C(/C(=O)OC)c1ccccc1Oc1cc(Oc2ccccc2C#N)ncn1` [AZOXYSTROBIN, azoxystrobin], which “% control observed on leaves 20 DAYS after the application” value (“% control observed on leaves 20 DAYS” for short) ([3]; Table 10, captan or folpet 1200, azoxystrobin 120, fluxapyroxad 75 gAI/ha, one spray 1 day before inoculation) is on record?
**A.** 51.4%

**Q.** What about the “% control observed on leaves 14 DAYS after the application” value (from here on “% control observed on leaves 14 DAYS”) ([3]; rate 120 gAI/ha, tomato) of the same compound?
**A.** 71%

**Q.** And the “% control observed on leaves 20 DAYS” value ([3]; rate 120 gAI/ha, tomato)?
**A.** 51.4%

**Q.** And the “Var % (14/20 DAYS)” value ([3]; rate 120 gAI/ha, tomato)?
**A.** −27.6%

**Q.** What about the “% control observed on leaves 21 DAYS” value ([4]; rate 90 gr (A.I.)/ha) of the same compound?
**A.** 65.9%

**Q.** And the “% control observed on leaves 21 DAYS” value ([5]; rate 250 gr (A.I.)/ha)?
**A.** 51.0%

**Q.** Which “% control observed on leaves 14 DAYS” value ([6]; rate 180 gr (A.I.)/ha) does the source give for `CCC(C)(NC(=O)c1cc(Cl)c(C)c(Cl)c1)C(=O)CCl` (stereo not shown) [ZOXAMIDE] here?
**A.** 74.4%

**Q.** What about the “% control observed on leaves 21 DAYS” value ([7]; rate 180 gr (A.I.)/ha) of the same compound?
**A.** 62.9%

**Q.** What about the “% control observed on leaves 21 DAYS” value ([8]; rate 135.0 gr (A.I.)/ha) of the same compound?
**A.** 74.7%

**Q.** `CC(C)(C)C(O)(CCc1ccc(Cl)cc1)Cn1cncn1` (stereo not shown) [TEBUCONAZOLE, tebuconazole] was tested. Which “% control observed on leaves 26 DAYS after the application” value (from here on “% control observed on leaves 26 DAYS”) [9, 12] did it give?
**A.** 77.4%

**Q.** And the “% control observed on leaves 19 DAYS after the application” value (from here on “% control observed on leaves 19 DAYS”) ([9]; Table 3)?
**A.** 82.5%

**Q.** And the “% control observed on leaves 26 DAYS” value ([9]; Table 3)?
**A.** 77.4%

**Q.** What about the “Var % (19/26 DAYS)” value ([9]; Table 3) of the same compound?
**A.** −6.2%

**Q.** What about the “% control observed on leaves 26 DAYS” value [10, 13] of the same compound?
**A.** 78.2%

**Q.** And the “% control observed on leaves 19 DAYS” value ([10]; Table 5)?
**A.** 83.8%

**Q.** What about the “% control observed on leaves 26 DAYS” value ([10]; Table 5) of the same compound?
**A.** 78.2%

**Q.** And the “Var % (19/26 DAYS)” value ([10]; Table 5)?
**A.** −6.7%

**Q.** What about the “% control observed on leaves 20 DAYS” value [11] of the same compound?
**A.** 64.3%

**Q.** With `Cc1cc(C(F)(F)F)nn1CC(=O)N1CCC(c2nc(C3=NOC(c4c(F)cccc4F)C3)cs2)CC1` (stereo not shown) [OXATHIAPIPROLIN] as the compound, how does the “% control observed on leaves 14 DAYS” value ([6]; rate 15 gr (A.I.)/ha) read?
**A.** 78.6%

**Q.** What about the “% control observed on leaves 21 DAYS” value ([7]; rate 15 gr (A.I.)/ha) of the same compound?
**A.** 63.6%

**Q.** And the “% control observed on leaves 21 DAYS” value ([8]; rate 22.5 gr (A.I.)/ha)?
**A.** 86.7%

**Q.** For `Cc1cc(OC(C)C)ccc1C(=O)C(C)(C)NC(=O)c1sccc1C` [ISOFETAMID], which “% control observed on leaves 21 DAYS” value ([2]; rate 400 gr (A.I.)/ha) is on record?
**A.** 74.0%

**Q.** Which results are given for `O=C(NCCc1ncc(C(F)(F)F)cc1Cl)c1ccccc1C(F)(F)F` [FLUOPYRAM, fluopyram]?
**A.** % control observed on leaves 26 DAYS after the application [9, 12]: 75.3%; % control observed on leaves 19 DAYS after the application ([9]; Table 3): 83.9%; % control observed on leaves 26 DAYS after the application ([9]; Table 3): 75.3%; Var % (19/26 DAYS) ([9]; Table 3): −10.3%; % control observed on leaves 26 DAYS after the application [10, 13]: 76.2%; % control observed on leaves 19 DAYS after the application ([10]; Table 5): 85.1%; % control observed on leaves 26 DAYS after the application ([10]; Table 5): 76.2%; Var % (19/26 DAYS) ([10]; Table 5): −10.5%; effect of FOLPET on the efficacy of the systemic product, treated area ([1]; with FOLPET vs use alone): efficacy gains; effect of FOLPET on the efficacy of the systemic product, untreated area ([1]; with FOLPET vs use alone): not statistically significant

**Q.** Which “% control observed on leaves 14 DAYS” value ([6]; rate 150 gr (A.I.)/ha) does the source give for `C#CCOc1ccc(CCNC(=O)C(OCC#C)c2ccc(Cl)cc2)cc1OC` (stereo not shown) [MANDIPROPAMIDE] here?
**A.** 65.7%

**Q.** And the “% control observed on leaves 21 DAYS” value ([7]; rate 150 gr (A.I.)/ha)?
**A.** 62.5%

**Q.** What about the “% control observed on leaves 21 DAYS” value ([8]; rate 112.5 gr (A.I.)/ha) of the same compound?
**A.** 74.1%

**Q.** How did the “% control observed on leaves 26 DAYS” value [9, 12] turn out when `CC1COC(Cn2cncn2)(c2ccc(Oc3ccc(Cl)cc3)cc2Cl)O1` (stereo not shown) [DIFENOCONAZOLE, difenoconazole] was run?
**A.** 71.8%

**Q.** And the “% control observed on leaves 19 DAYS” value ([9]; Table 3)?
**A.** 77.9%

**Q.** What about the “% control observed on leaves 26 DAYS” value ([9]; Table 3) of the same compound?
**A.** 71.8%

**Q.** What about the “Var % (19/26 DAYS)” value ([9]; Table 3) of the same compound?
**A.** −7.8%

**Q.** What about the “% control observed on leaves 26 DAYS” value [10, 13] of the same compound?
**A.** 73.1%

**Q.** And the “% control observed on leaves 19 DAYS” value ([10]; Table 5)?
**A.** 79.5%

**Q.** And the “% control observed on leaves 26 DAYS” value ([10]; Table 5)?
**A.** 73.1%

**Q.** And the “Var % (19/26 DAYS)” value ([10]; Table 5)?
**A.** −8.1%

**Q.** And the “% control observed on leaves 20 DAYS” value [11]?
**A.** 60.6%

**Q.** What about the “% control observed on leaves 21 DAYS” value ([4]; rate 37.5 gr (A.I.)/ha) of the same compound?
**A.** 68.9%

**Q.** What about the “% control observed on leaves 21 DAYS” value ([5]; rate 50 gr (A.I.)/ha) of the same compound?
**A.** 49.4%

Source: patent US20230270113A1, “FUNGICIDAL MIXTURES” (Adama Makhteshim Ltd., priority 2020, published 2023)
